Reference: publication PMC7794397, “Curbing gastrointestinal infections by defensin fragment modifications without harming commensal microbiota” (Communications Biology, 2021)
Values after ≈ are worked out from the molar mass of the structure shown. Values joined by “and” are separate entries in the source; they are usually repeats but may differ in a detail not shown here. Equal entries are not always repeated. Residues, ends and D or L forms follow the SMILES beside them. *: point of attachment. Palmitoyl = CCCCCCCCCCCCCCCC(=O)*; AEEA = NCCOCCOCC(=O)O

Legend:
[1] = system: A. baumannii DSM30007 4-MRGN
Description: (§1) Bactericidal activity was assessed by broth microdilution assay. Log-phase bacteria were collected by centrifugation (2500 rpm, 10 min, 4 °C), washed twice with 10 mM sodium phosphate buffer containing 1% (w/v) TSB and the optical density at 600 nm was adjusted to 0.1. Approximately 5 × 10^5 CFU/ml bacteria were incubated with serial peptide concentrations (1.17–150 µM) in a final volume of 100 µl in 10 mM sodium phosphate buffer containing 1% (w/v) TSB for 2 h at 37 °C. After incubation, 100 µl of 6% TSB (w/v) were added and absorbance was measured at 600 nm (Tecan, Switzerland) and monitored for 18 h. Afterward, 100 µl per well were plated on LB agar to determine the numbers of viable bacteria microbiologically. Bactericidal activity is expressed as the LC99.9, the lowest concentration that killed ≥99.9 % of bacteria.

[2] = system: E. coli 6940 3-MRGN; details: 2 h
Description: as §1

[3] = system: E. faecium DSM2918 VRE; details: DSM2918, 2 h
Description: as §1

[4] = system: P. aeruginosa DSM1117 4-MRGN; details: DSM1117, 2 h
Description: as §1

[5] = system: S. aureus DSM20213 MRSA; details: DSM20213, 2 h
Description: as §1

[6] = system: S. aureus ATCC25923; assay: Treatment of established biofilms; type: cell-based; details: for viable bacteria in biofilm: 24 h old biofilm, 1 h treatment
Description: Then, planktonic bacteria were removed by two wash steps with PBS. […] Afterward, adherent bacteria in each well were resuspended, and the number of viable bacteria was determined microbiologically. […] The biofilm degradation assay was performed in agreement with the original report describing this method first.

[7] = system: P. aeruginosa PAO1; type: cell-based
Description: (§2) After incubation at 37 °C and 150 rpm for 1–120 min, a sample of 50 µl was taken from the suspension and added to 50 µl of a 0.05% (v/v) sodium polyanethol sulfonate (Sigma-Aldrich) solution, which neutralizes remaining peptide activity, and plated on LB agar to determine the number of viable bacteria.

[8] = system: S. aureus ATCC25923; type: cell-based
Description: as §2

[9] = Oral tolerance test (safety) in mice; type: in vivo, C57BL/6N mice; details: for Creatinin / GOT: serum; for Creatinin / GOT / Bodyweight loss: individual animals
Excerpt: C57BL/6N mice were generated and maintained (including breeding and housing) at the animal facilities of the Helmholtz Centre for Infection Research (HZI) under enhanced specific pathogen-free (SPF) conditions. Animals used in the experiments were gender and age matched. Female and male mice with an age of 8–12 weeks were used. Sterilized food and water ad libitum was provided. Mice were kept under a strict 12-h light cycle (lights on at 7:00 am and off at 7:00 pm) and housed in groups of two to six mice per cage. All mice were euthanized by asphyxiation with CO2 and cervical dislocation. All animal experiments were performed in agreement with the local government of Lower Saxony, Germany (approved permission No. 33.19-42502-04-18/2499).
Age- and gender-matched mice received two doses of peptides (0, 125 µg or 250 µg) solved in 100 µl PBS orally per day. Bodyweight and appearance were recorded. The following day, mice were sacrificed and stomach, kidney, spleen, liver, small intestine, cecum, and colon were removed for histological scoring. Around 1 ml of blood was taken from the heart to measure inflammatory markers, including creatinine in the kidney and the enzyme levels of glutamate-oxalacetate-transaminase (GOT) in the liver.

[10] = histology, animals with signs of pathology/total, treated twice with 250 µg orally, within 24 h
[11] = one day after 2 x 125 µg orally, N = 4
[12] = one day after 2 x 250 µg orally, N = 6

CCCCCCCCCCCCCCCC(=O)NCCOCCOCC(=O)N[C@@H](CCCNC(=N)N)C(=O)NCC(=O)N[C@@H](CCCCN)C(=O)N[C@@H](C)C(=O)N[C@@H](CCCCN)C(=O)N[C@@H](CS)C(=O)N[C@@H](CS)C(=O)N[C@@H](CCCCN)C(=O)O [Pam-3] ({Palmitoyl-AEEA}-RGKAKCCK-OH; C-terminus assumed)
growth inhibition of colistin- and tigecycline-resistant isolate (in words) [1]: inhibited the growth | LC99.9 [2]: 9.38 µM | LC99.9 [3]: 9.38 (4.87-9.38) μM | LC99.9 [4]: 9.38 µM | LC99.9 [5]: 9.38 (4.87-9.38) μM | eradication of bacteria in biofilms ([6]; 300 µM, within 1 h, Kruskal–Wallis p = 0.0026): ~ 99.99% | viable bacteria in biofilm ([6]; 9.375 µM Pam-3, experiment 1): 43066667 CFU/ml | viable bacteria in biofilm ([6]; 9.375 µM Pam-3, experiment 2): 6050000 CFU/ml | viable bacteria in biofilm ([6]; 9.375 µM Pam-3, experiment 3): 15666667 CFU/ml | viable bacteria in biofilm ([6]; 18.75 µM Pam-3, experiment 1): 32200000 CFU/ml | viable bacteria in biofilm ([6]; 18.75 µM Pam-3, experiment 2): 3550000 CFU/ml | viable bacteria in biofilm ([6]; 18.75 µM Pam-3, experiment 3): 17250000 CFU/ml | viable bacteria in biofilm ([6]; 37.5 µM Pam-3, experiment 1): 27300000 CFU/ml | viable bacteria in biofilm ([6]; 37.5 µM Pam-3, experiment 2): 2333333 CFU/ml | viable bacteria in biofilm ([6]; 37.5 µM Pam-3, experiment 3): 5966667 CFU/ml | viable bacteria in biofilm ([6]; 75 µM Pam-3, experiment 1): 1496667 CFU/ml | viable bacteria in biofilm ([6]; 75 µM Pam-3, experiment 2): 239889 CFU/ml | viable bacteria in biofilm ([6]; 75 µM Pam-3, experiment 3): 3451667 CFU/ml | viable bacteria in biofilm ([6]; 150 µM Pam-3, experiment 1): 150333 CFU/ml | viable bacteria in biofilm ([6]; 150 µM Pam-3, experiment 2): 9167 CFU/ml | viable bacteria in biofilm ([6]; 150 µM Pam-3, experiment 3): 24500 CFU/ml | viable bacteria in biofilm ([6]; 300 µM Pam-3, experiment 1): 67 CFU/ml | viable bacteria in biofilm ([6]; 300 µM Pam-3, experiment 2): 333 CFU/ml | viable bacteria in biofilm ([6]; 300 µM Pam-3, experiment 3): 1300 CFU/ml | time to eradication to the level of detection ([7]; 9.38 µM Pam-3): 2 min | time to killing of more than 90% of bacteria ([7]; 9.38 µM Pam-3): ≤ 1 min | MIC ([7]; PAO1): 9.38 µM (≈ 12 µg/mL) | time to eradication to the level of detection ([8]; 9.38 µM Pam-3): 30 min | time to killing of more than 90% of bacteria ([8]; 9.38 µM Pam-3): ≤ 15 min | MIC ([8]; ATCC25923): 9.38 µM (≈ 12 µg/mL) | acute toxicity (in words) ([9]; histology and serum markers 24 h after two doses of 250 µg orally): did not reveal acute toxicity | Cecum and Colon: Dysplasia [9, 10]: 0/6 | Cecum and Colon: Inflammation [9, 10]: 0/6 | Duodenum-Jejunum: Dysplasia [9, 10]: 0/6 | Duodenum-Jejunum: Inflammation [9, 10]: 0/6 | Jejunum-Ileum: Dysplasia [9, 10]: 2/6 | Jejunum-Ileum: Inflammation [9, 10]: 0/6 | Jejunum-Ileum: Paneth cells [9, 10]: 0/6 | Kidney: Glomeruli [9, 10]: 0/6 | Kidney: Papilla [9, 10]: 0/6 | Kidney: Pelvis [9, 10]: 0/6 | Kidney: Tubuli [9, 10]: 3/6 | Liver: Anisocaryosis [9, 10]: 0/6 | Liver: Double nucleated cells [9, 10]: 0/6 | Liver: Fatty change [9, 10]: 0/6 | Liver: Glycogen [9, 10]: 0/6 | Liver: Hematopoiesis [9, 10]: 0/6 | Liver: Lymphocytic aggregates [9, 10]: 0/6 | Stomach: Glycogen [9, 10]: 0/6 | Stomach: Lymphocytic aggregates [9, 10]: 0/6 | bodyweight (in words) ([9]; oral Pam-3, Fig. 4a): no alterations in bodyweight | serum glutamic oxaloacetic transaminase vs PBS (in words) ([9]; oral Pam-3, Fig. 4b): no significant differences | serum creatinine vs PBS (in words) ([9]; oral Pam-3, Fig. 4c): no significant differences | Creatinin [9, 11]: 0.7 mg/dL and 0.3 mg/dL | GOT [9, 11]: 56 U/I and 83 U/I and 71 U/I and 622 U/I | Creatinin [9, 12]: 0.4 mg/dL and 0.5 mg/dL and 0.3 mg/dL and 0.2 mg/dL and 0.6 mg/dL | GOT [9, 12]: 271 U/I and 163 U/I and 240 U/I and 280 U/I and 771 U/I and 499 U/I | Bodyweight loss ([9]; treated twice with 125 µg orally, N = 5): 98.6047% and 99.4355% and 98.663% and 99.2814% and 97.8588% | Bodyweight loss ([9]; treated twice with 250 µg orally, N = 6): 97.5318% and 97.8707% and 99.133% and 99.7222% and 99.016% and 101.461%
